# From patent US20180021450A1, “ANTI-STAPHYLOCOCCUS AUREUS ANTIBODY RIFAMYCIN CONJUGATES AND USES THEREOF” (Genentech, Inc., priority 2014, published 2018)
# Legend:
# [1] = system: MRSA (USA300 NRS384 strain); experiment: Murine intravenous infection model (CB17.SCID mice reconstituted with IGIV); type: in vivo, Staphylococcus aureus; settings: single dose 24h post infection; free antibiotic at equal molar concentration
# Description: S. aureus is a common colonizer of human skin and mucosal surfaces. […] Mouse serum has no appreciable levels of anti-S aureus antibody. To determine whether endogenous anti-WTA antibodies found in normal human serum might compete for binding with the AAC, CB17.SCID mice (Charles River Laboratories, Hollister, Calif.) were reconstituted with GammaGard S/D IGIV Immune Globulin (ASD Healthcare, Brooks Ky.) using a dosing regimen optimized to achieve constant serum levels of at least 10 mg/mL of human IgG in serum. IGIV was administered with an initial intravenous dose of 30 mg per mouse followed by a second dose of 15 mg/mouse by intraperitoneal (i.p.) injection after 6 hours, and subsequent daily dosings of 15 mg per mouse by intraperitoneal injection for 3 consecutive days. These mice were equally susceptible to infection with MRSA compared to untreated controls.
# Mice (n=8 for each of antibody or AAC) were infected 4 hours after the first dose of IGIV with 1×10^7 CFU of MRSA (USA300 NRS384 strain) diluted in phosphate buffered saline by intravenous injection. Infected mice were treated with 50 mg/kg of S4497 naked antibody or S4497 AAC from Table 3. […] The total number of bacteria recovered per organ was determined by plating serial dilutions of the tissue homogenate in PBS 0.05% Tween on Tryptic Soy Agar with 5% defibrinated sheep blood.
# [2] = system: S. aureus (USA300) persister cells; experiment: Killing of persister cells by free antibiotics; type: cell-based, Staphylococcus aureus; settings: ciprofloxacin-treated cultures, second antibiotic 1 ug/ml
# Description: Killing of persisters cells by free antibiotics: S. aureus (USA300) was taken from an overnight stationary phase culture, washed once in Tryptic Soy Broth (TSB) and then adjusted to a final concentration of 1×10^7 CFU/ml in a total volume of 10 mL of either TSB or TSB with ciprofloxicin (0.05 mM). Cultures were incubated with shaking at 37° C. for 6 hours and then the second antibiotic, either rifampicin (1 ug/ml) or another rifamycin-type antibiotic (1 ug/ml) was added. At the indicated times, samples were removed from each culture, washed once with PBS to remove the antibiotic and re-suspended in PBS. The total number of surviving bacteria was determined by plating serial dilutions of the bacteria on agar plates. At the final time point the remainder of each culture was collected and plated.
# [3] = system: S. aureus (USA300), stationary phase; experiment: Time of kill for free antibiotics on non-replicating bacteria; type: cell-based, Staphylococcus aureus; settings: 1×10^-6M antibiotic, overnight incubation in PBS at 37° C.
# Description: Time of kill for free antibiotics on non-replicating bacteria: S. aureus (USA300) was taken from an overnight stationary phase culture, washed once in Phosphate Buffered Saline (PBS) and suspended at 1×10^7 CFU/mL in PBS with no antibiotic or with 1×10^-6M antibiotic in a 10 mL volume in 50 mL polypropylene centrifuge tubes. The bacteria were incubated at 37° C. overnight with shaking. At each time point, three 1 mL samples were removed from each culture and centrifuged to collect the bacteria. Bacteria were washed once with PBS to remove the antibiotic and the total number of surviving bacteria was determined by plating serial dilutions of the bacteria on agar plates.
# MRSA was collected from a stationary phase culture and suspended in phosphate buffered saline containing no antibiotic or 1×10^-6M of rifampin or the rifamycin-derivative (Rifalog) and incubated at 37° C. At the indicated times, a sample of the culture was collected and centrifuged to remove the antibiotic and the total number of surviving bacteria was determined by plating.
structure (smiles),measurement,setting,value
"CO[C@H]1/C=C/O[C@@]2(C)Oc3c(C)c(O)c4c(=O)c(c5oc6cc(N7CCC(N(C)C)CC7)cc(O)c6nc-5c4c3C2=O)NC(=O)/C(C)=C\C=C\[C@H](C)[C@H](O)[C@@H](C)[C@@H](O)[C@@H](C)[C@H](OC(C)=O)[C@@H]1C [dimethylpipBOR, dimethylpiperidyl benzoxazino rifamycin]",efficacy on bacterial counts in infected organs,[1],not efficacicou
same,effect on viability of persister cells,[2],eradication of persister cells below the limit of detection
same,"decrease in the number of viable, but non-replicating, bacteria",[3],"more than 1,000 fold"
